Data: PubChem BioAssay (NCI)
Values joined by “and” are separate entries in the source; they are usually repeats but may differ in a detail not shown here. Equal entries are not always repeated.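 A five-concentration, 48-hour dose response in 96-well plates underlies each endpoint, interpolated linearly between surrounding concentrations. GI50: concentration for 50% inhibition of growth. TGI marks complete inhibition of growth.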

Key:
Assay in all cases: inhibition of tumour cell growth, NCI panel, 48 h
[1] = test system: TK-10 renal
[2] = test system: SK-MEL-28 melanoma
[3] = test system: UACC-257 melanoma
[4] = test system: HCC-2998 colon
[5] = test system: NCI-H23 lung
[6] = test system: OVCAR-3 ovarian
[7] = test system: HOP-62 NSCLC
[8] = test system: MDA-MB-435
[9] = test system: SF-539 CNS
[10] = test system: HCT-116 colon

| Compound | GI50 [1] [µM] | TGI [1] [µM] | GI50 [2] [µM] | TGI [2] | GI50 [3] | TGI [3] | GI50 [4] [µM] | TGI [4] | GI50 [5] | TGI [5] | GI50 [6] [µM] | TGI [6] | GI50 [7] | TGI [7] | TGI [8] [µM] | GI50 [9] [µM] | TGI [9] | GI50 [10] | TGI [10] | GI50 [8] [µM] |
| --- | --- | --- | --- | --- | --- | --- | --- | --- | --- | --- | --- | --- | --- | --- | --- | --- | --- | --- | --- | --- |
| O=C1NC2C(=CC(O)C(O)C2O)c2cc3c(cc21)OCO3 (configuration not stated) | 0.917 | 4.11 | 0.201 | 2.06 µM and 2.88 µM | 0.47 µM and 0.304 µM | 2.83 µM and 2.86 µM | 0.179 | 1.38 µM and 1.67 µM | 0.325 µM and 0.205 µM | 2 µM and 2.84 µM | 0.441 | 2.36 µM and 1.42 µM | 0.277 µM and 0.191 µM | 1.82 µM and 1.84 µM | 0.965 | 0.237 | 1.41 µM and 1.85 µM | 0.282 µM and 0.101 µM | 1.18 µM and 2.77 µM | – |
| COc1ccc(Cn2cc3c(c2-c2ccccc2)CCc2cnoc2-3)cc1OC | 2.3 | > 100 | 26.3 | > 100 µM | 60.4 µM | > 100 µM | 2.19 | > 100 µM | 1.46 µM | > 100 µM | 0.332 | 0.884 µM | 1.34 µM | > 100 µM | 0.864 | 1.02 | 5.6 µM | 0.482 µM | > 100 µM | 0.244 |
| O=[N+]([O-])c1ccc(C2CC(c3ccccc3)=Nc3ccccc3S2)cc1 (configuration not stated) | > 100 | > 100 | > 100 | > 100 µM | > 100 µM | > 100 µM | > 100 | > 100 µM | > 100 µM | > 100 µM | 11.8 | > 100 µM | 97.1 µM | > 100 µM | > 100 | > 100 | > 100 µM | 1.98 µM | 4.11 µM | > 100 |
| CCc1nc(N)nc(N)c1-c1ccc2nnn(O)c2c1 | – | > 100 | – | > 100 µM | – | > 100 µM | – | > 100 µM | – | > 100 µM | – | > 100 µM | – | > 100 µM | > 100 | – | > 100 µM | – | > 100 µM | – |
| CONC(C)=O | – | > 100 | – | > 100 µM | – | > 100 µM | – | > 100 µM | – | > 100 µM | – | > 100 µM | – | > 100 µM | > 100 | – | > 100 µM | – | > 100 µM | – |
| O=[N+]([O-])c1ccc(C2=Nn3c(nnc3-c3ccc(Cl)cc3)SC2)o1 | – | 29.7 | – | 28 µM | – | 16.9 µM | – | 5.72 µM | – | 18.6 µM | – | 10.6 µM | – | 24.9 µM | 4.39 | – | 20.5 µM | – | 15.1 µM | – |
| CCCCCCCCCCCCSC1=C(Cl)C(=O)C(OC)=C(OC)C1=O | 2.24 | 24.6 | 5.93 | 21.8 µM | 3.62 µM | 27.6 µM | 2.41 | 10.9 µM | 3.36 µM | 20.2 µM | 1.39 | 18.3 µM | 6.07 µM | 18.5 µM | 10.2 | 2.81 | 11.9 µM | 0.508 µM | 11.9 µM | 0.653 |
| CCCc1cc(=O)n2c(C(=O)Nc3cccc(C(=O)OCC)c3)c(C(=O)Nc3ccc(F)cc3)sc2n1 | 5.72 | 22.1 | 133 | > 140 µM | 54.1 µM | > 140 µM | > 140 | > 140 µM | 66.3 µM | > 140 µM | 3.17 | 7.75 µM | 3.54 µM | 28.8 µM | > 140 | 23.8 | > 140 µM | 1.06 µM | > 140 µM | > 140 |
| COc1cc2c(cc1Cc1cccc(Cl)c1F)c(=O)c(C(=O)O)cn2[C@@H](CO)C(C)C | – | – | 6.63 | 21.9 µM | 3.23 µM | 14 µM | 3.13 | 11.6 µM | 3.18 µM | 12.4 µM | 3.32 | 10.9 µM | 5.22 µM | 18.6 µM | 15.2 | 3.39 | 10.7 µM | 2.99 µM | 11.7 µM | 3.84 |
| CCNC(=O)Nc1ccc(Oc2ccnc3ccc4c(ccn4C)c23)cc1 | 33.5 | 99.3 | 9.33 | > 100 µM | 28.4 µM | 86.2 µM | 28.2 | 63.9 µM | > 100 µM | > 100 µM | 19.7 | 42.2 µM | 46.9 µM | > 100 µM | > 100 | 23.6 | 85.1 µM | 21.2 µM | > 100 µM | > 100 |
| CCN1C(=O)N(CC)C2C1NN=c1s/c(=C\c3ccco3)c(=O)n12 (configuration not stated) | 19.7 | > 100 | > 22.8 | > 100 µM | > 100 µM | > 100 µM | 1.98 | > 100 µM | 1.1 µM | > 100 µM | 0.334 | – | 0.722 µM | > 100 µM | 0.58 | 0.402 | 6.48 µM | 0.436 µM | > 100 µM | 0.138 |
| CCCCCCCCCCCC(=O)N1CCN(C(C)=O)CC1 | 31 | 72.1 | – | – | 19.4 µM | 36.9 µM | 14.8 | 28.1 µM | 19.5 µM | 40.8 µM | 27.6 | 95 µM | 18.1 µM | 36.4 µM | 40.9 | 18 | 32.4 µM | 22.5 µM | 63.4 µM | 20.4 |
| O=c1[nH]c(=O)c2cc3cc(C4CC(O)C(CO)O4)ccc3cc2[nH]1 (configuration not stated) | – | – | > 100 | > 100 µM | > 100 µM | > 100 µM | > 100 | > 100 µM | > 100 µM | > 100 µM | > 100 | > 100 µM | > 100 µM | > 100 µM | > 100 | > 100 | > 100 µM | > 100 µM | > 100 µM | > 100 |
